Test results from the NIST ThermoML archive (doi:10.1021/je400486p).

Test: xn = mol fraction of the nth substance listed
Conditions: 101.3 kPa, Liquid; for viscosity: Concentric cylinders viscometry; for mass density: Vibrating tube method

CN1CCCC1=O [N-methylpyrrolidone] + CCC(C)O
Conditions | mass density [kg/m3] | viscosity [mPa·s]
288.15 K, x2 = 0 | 1037.3 | 1.99
288.15 K, x2 = 0.1049 | 1014.52 | 1.984
288.15 K, x2 = 0.2001 | 993.63 | 1.974
288.15 K, x2 = 0.3009 | 971.257 | 1.972
288.15 K, x2 = 0.4019 | 948.589 | 2.005
288.15 K, x2 = 0.5003 | 926.282 | 2.032
288.15 K, x2 = 0.5995 | 903.599 | 2.118
288.15 K, x2 = 0.7004 | 880.362 | 2.302
288.15 K, x2 = 0.7985 | 857.64 | 2.618
288.15 K, x2 = 0.899 | 834.259 | 3.227
293.15 K, x2 = 0 | 1032.84 | 1.823
293.15 K, x2 = 0.1049 | 1010.11 | 1.815
293.15 K, x2 = 0.2001 | 989.247 | 1.801
293.15 K, x2 = 0.3009 | 966.914 | 1.798
293.15 K, x2 = 0.4019 | 944.287 | 1.817
293.15 K, x2 = 0.5003 | 922.02 | 1.839
293.15 K, x2 = 0.5995 | 899.376 | 1.905
293.15 K, x2 = 0.7004 | 876.183 | 2.048
293.15 K, x2 = 0.7985 | 853.51 | 2.29
293.15 K, x2 = 0.899 | 830.183 | 2.757
298.15 K, x2 = 0 | 1028.38 | 1.679
298.15 K, x2 = 0.1049 | 1005.69 | 1.664
298.15 K, x2 = 0.2001 | 984.854 | 1.652
298.15 K, x2 = 0.3009 | 962.556 | 1.647
298.15 K, x2 = 0.4019 | 939.97 | 1.655
298.15 K, x2 = 0.5003 | 917.742 | 1.67
298.15 K, x2 = 0.5995 | 895.133 | 1.72
298.15 K, x2 = 0.7004 | 871.975 | 1.832
298.15 K, x2 = 0.7985 | 849.341 | 2.019
298.15 K, x2 = 0.899 | 826.054 | 2.368
303.15 K, x2 = 0 | 1023.92 | 1.555
303.15 K, x2 = 0.1049 | 1001.27 | 1.538
303.15 K, x2 = 0.2001 | 980.46 | 1.524
303.15 K, x2 = 0.3009 | 958.194 | 1.514
303.15 K, x2 = 0.4019 | 935.644 | 1.516
303.15 K, x2 = 0.5003 | 913.448 | 1.522
303.15 K, x2 = 0.5995 | 890.869 | 1.56
303.15 K, x2 = 0.7004 | 867.739 | 1.645
303.15 K, x2 = 0.7985 | 845.132 | 1.792
303.15 K, x2 = 0.899 | 821.864 | 2.051
308.15 K, x2 = 0 | 1019.46 | 1.444
308.15 K, x2 = 0.1049 | 996.845 | 1.427
308.15 K, x2 = 0.2001 | 976.091 | 1.411
308.15 K, x2 = 0.3009 | 953.86 | 1.399
308.15 K, x2 = 0.4019 | 931.323 | 1.393
308.15 K, x2 = 0.5003 | 909.136 | 1.397
308.15 K, x2 = 0.5995 | 886.575 | 1.424
308.15 K, x2 = 0.7004 | 863.468 | 1.489
308.15 K, x2 = 0.7985 | 840.874 | 1.598
308.15 K, x2 = 0.899 | 817.592 | 1.786
313.15 K, x2 = 0 | 1015 | 1.346
313.15 K, x2 = 0.1049 | 992.413 | 1.327
313.15 K, x2 = 0.2001 | 971.652 | 1.311
313.15 K, x2 = 0.3009 | 949.443 | 1.297
313.15 K, x2 = 0.4019 | 926.949 | 1.285
313.15 K, x2 = 0.5003 | 904.8 | 1.285
313.15 K, x2 = 0.5995 | 882.258 | 1.303
313.15 K, x2 = 0.7004 | 859.157 | 1.351
313.15 K, x2 = 0.7985 | 836.567 | 1.431
313.15 K, x2 = 0.899 | 813.284 | 1.566
318.15 K, x2 = 0 | 1010.53 | 1.259
318.15 K, x2 = 0.1049 | 987.978 | 1.239
318.15 K, x2 = 0.2001 | 967.237 | 1.221
318.15 K, x2 = 0.3009 | 945.05 | 1.206
318.15 K, x2 = 0.4019 | 922.578 | 1.19
318.15 K, x2 = 0.5003 | 900.445 | 1.186
318.15 K, x2 = 0.5995 | 877.912 | 1.197
318.15 K, x2 = 0.7004 | 854.81 | 1.23
318.15 K, x2 = 0.7985 | 832.207 | 1.286
318.15 K, x2 = 0.899 | 808.882 | 1.379
323.15 K, x2 = 0 | 1006.06 | 1.182
323.15 K, x2 = 0.1049 | 983.533 | 1.161
323.15 K, x2 = 0.2001 | 962.815 | 1.141
323.15 K, x2 = 0.3009 | 940.651 | 1.124
323.15 K, x2 = 0.4019 | 918.196 | 1.104
323.15 K, x2 = 0.5003 | 896.069 | 1.098
323.15 K, x2 = 0.5995 | 873.531 | 1.103
323.15 K, x2 = 0.7004 | 850.415 | 1.124
323.15 K, x2 = 0.7985 | 827.785 | 1.162
323.15 K, x2 = 0.899 | 804.404 | 1.222
